# In ChEMBL document CHEMBL1201862, “PubChem BioAssay data set” (2004):
# The source made the active and inactive calls.
# How the values were obtained:
# [1] = HEK-293T viability loss after treatment – luminescence, T-cell screen hits, cytotoxicity control for TCR NF-kB inhibitor project, dose response (AID 489026); format: functional, cell-based;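 note: cells exposed to compound about 14 hours before the viability readout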
# [2] = biological target: Estrogen receptor beta (Homo sapiens, UniProt Q92731); experiment: blockers of SRC-3 recruitment to ERβ – biochemical, ELISA, streptavidin-HRP readout, orthogonal assay, confirmation (AID 1060)
# Estrogen receptor beta, sequence (Q92731 whole entry): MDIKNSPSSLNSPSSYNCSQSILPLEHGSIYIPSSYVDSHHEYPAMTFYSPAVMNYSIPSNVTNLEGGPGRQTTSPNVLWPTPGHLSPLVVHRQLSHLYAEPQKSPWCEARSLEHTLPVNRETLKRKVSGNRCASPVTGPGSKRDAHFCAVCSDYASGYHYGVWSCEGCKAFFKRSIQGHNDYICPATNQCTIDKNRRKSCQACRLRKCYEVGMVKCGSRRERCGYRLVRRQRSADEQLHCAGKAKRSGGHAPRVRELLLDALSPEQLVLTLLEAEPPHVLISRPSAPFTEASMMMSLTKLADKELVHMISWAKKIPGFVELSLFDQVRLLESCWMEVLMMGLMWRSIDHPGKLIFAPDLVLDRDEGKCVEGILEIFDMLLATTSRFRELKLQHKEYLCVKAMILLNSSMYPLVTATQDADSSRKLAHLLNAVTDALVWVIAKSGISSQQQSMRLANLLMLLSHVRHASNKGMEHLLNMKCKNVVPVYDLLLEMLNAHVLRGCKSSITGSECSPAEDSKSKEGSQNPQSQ
# [3] = tested on: Vero; experiment: cells; format: functional; settings: Chlorocebus sabaeus
# [4] = microbe, parasite or virus in culture; format: functional; settings: Mycobacterium tuberculosis
# [5] = Luminescence Cell-Based Dose Response HTS to Identify Activators of Luciferase Translation or Activity in H4 […] Cells. [Related pubchem assays: 1829 (Project Summary), 1814 (Primary HTS)]; format: functional
# [6] = Luminescence Cell-Based Dose Response to Identify Activators of Luciferase Translation or Activity in H4-C Neuroglioblastoma Cells. [Related pubchem assays: 1829 (Project Summary), 1814 (Primary HTS)]; format: functional
# [7] = Luminescence Cell-Based Dose Response to Identify Activators of 5'UTR Stem-Loop Driven Prion Protein mRNA Translation in H4-C Neuroglioblastoma Cells. [Related pubchem assays: 1829 (Project Summary), 1814 (Primary HTS)]; format: functional
# [8] = Luminescence Cell-Based Dose Confirmation to Identify Activators of 5'UTR Stem-Loop Driven Alpha-Synuclein mRNA Translation in H4 Neuroglioblastoma Cells. [Related pubchem assays: 1829 (Project Summary), 1814 (Primary HTS)]; format: functional
# [9] = viability of uninfected HEp-2 cells – cell-based, HTS, cytotoxicity control for RSV inhibitor project, dose response (AID 2410); format: functional; settings: human respiratory syncytial virus
# [10] = biological target: T1, Streptokinase A (Streptococcus pyogenes serotype M1, UniProt P10520); experiment: viability-normalized secreted streptokinase activity reduction – plasminogen activation absorbance, OD405, dose response (AID 1914); format: functional, Streptococcus pyogenes M1 GAS;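 note: secreted streptokinase activity via plasminogen activation per viability signal from cell pellet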
# T1 sequence (P10520 whole entry): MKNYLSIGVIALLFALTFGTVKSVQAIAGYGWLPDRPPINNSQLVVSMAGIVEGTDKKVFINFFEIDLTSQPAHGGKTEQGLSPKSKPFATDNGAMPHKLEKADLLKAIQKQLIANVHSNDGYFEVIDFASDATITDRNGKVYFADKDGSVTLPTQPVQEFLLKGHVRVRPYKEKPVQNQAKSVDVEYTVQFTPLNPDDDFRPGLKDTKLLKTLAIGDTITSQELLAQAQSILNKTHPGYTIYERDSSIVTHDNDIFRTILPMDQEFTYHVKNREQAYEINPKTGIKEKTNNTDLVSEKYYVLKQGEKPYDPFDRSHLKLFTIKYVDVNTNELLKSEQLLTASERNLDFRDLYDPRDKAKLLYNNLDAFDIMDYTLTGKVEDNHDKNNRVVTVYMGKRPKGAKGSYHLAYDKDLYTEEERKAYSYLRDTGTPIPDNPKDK
# [11] = tested on: Streptococcus sp. 'group A'; experiment: Streptococcus pyogenes SK(-)GAS viability under kanamycin – luminescence, BacTiterGlo, confirmation, counter-screen for streptokinase expression inhibitor project, dose response (AID 1900); format: functional, organism-based
# [12] = tested on: Streptococcus; experiment: GAS UMAA2166 growth inhibition – luminescence, BacTiterGlo, counter-screen for streptokinase expression inhibitor project, dose response (AID 1915); format: functional, organism-based;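 note: potency for reduction of bacterial viability or growth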
# [13] = cAMP pathway inhibition in counterscreen cell line – TR-FRET cAMP detection, counter-screen for MC4R biased antagonist project, dose response (AID 602305); format: functional, cell-based;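 note: U2OS cells stimulated with forskolin near its EC80 as the cAMP inducer; potency is for inhibition of forskolin-stimulated cAMP signaling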
# [14] = biological target: Melanocortin receptor 4 (Homo sapiens, UniProt P32245); experiment: inhibitors of MC4R cAMP signaling – cell-based, TR-FRET, biased antagonists, dose response (AID 602298); format: functional;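 note: antagonist potency against agonist-stimulated cAMP production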
# Melanocortin receptor 4, sequence (P32245 whole entry): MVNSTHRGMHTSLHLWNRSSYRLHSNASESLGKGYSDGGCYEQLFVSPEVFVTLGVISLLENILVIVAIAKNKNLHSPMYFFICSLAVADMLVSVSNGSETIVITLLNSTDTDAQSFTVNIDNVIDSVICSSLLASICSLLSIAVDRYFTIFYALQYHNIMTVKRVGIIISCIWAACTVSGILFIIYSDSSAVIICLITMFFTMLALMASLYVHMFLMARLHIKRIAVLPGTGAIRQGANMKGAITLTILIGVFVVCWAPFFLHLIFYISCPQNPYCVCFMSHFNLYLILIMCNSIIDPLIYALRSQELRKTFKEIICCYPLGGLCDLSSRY
# [15] = biological target: T2, CAAX prenyl protease 2 (Saccharomyces cerevisiae S288c, UniProt Q03530); format: biochemical
# T2 sequence (Q03530 whole entry): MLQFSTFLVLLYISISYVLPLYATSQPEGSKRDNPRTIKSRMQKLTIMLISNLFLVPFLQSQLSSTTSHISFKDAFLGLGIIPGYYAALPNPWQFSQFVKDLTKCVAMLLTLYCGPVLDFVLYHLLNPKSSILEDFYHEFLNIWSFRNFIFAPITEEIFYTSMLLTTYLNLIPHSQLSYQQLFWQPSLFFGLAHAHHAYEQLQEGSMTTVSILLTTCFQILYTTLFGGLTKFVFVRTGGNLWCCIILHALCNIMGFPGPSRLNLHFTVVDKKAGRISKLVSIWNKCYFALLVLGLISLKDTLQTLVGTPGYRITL
# [16] = biological target: G-protein coupled receptor 55 (Homo sapiens, UniProt Q9Y2T6); experiment: inhibition of LPI-stimulated GPR55 beta-arrestin translocation – imaging, U2OS, beta-arrestin-GFP, LPI agonist, primary screen (AID 2013); format: functional;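 note: antagonist potency measured as reduced agonist-driven arrestin aggregation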
# G-protein coupled receptor 55, sequence (Q9Y2T6 whole entry): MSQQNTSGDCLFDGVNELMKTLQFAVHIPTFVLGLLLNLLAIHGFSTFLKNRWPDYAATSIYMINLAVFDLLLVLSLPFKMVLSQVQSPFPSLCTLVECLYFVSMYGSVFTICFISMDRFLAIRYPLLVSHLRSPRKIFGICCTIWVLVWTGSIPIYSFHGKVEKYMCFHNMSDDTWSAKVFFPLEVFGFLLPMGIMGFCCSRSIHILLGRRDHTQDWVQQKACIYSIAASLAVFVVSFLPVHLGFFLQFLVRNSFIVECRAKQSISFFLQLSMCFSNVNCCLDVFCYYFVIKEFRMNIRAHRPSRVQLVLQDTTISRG
# [17] = biological target: T3, Ubiquitin-conjugating enzyme E2 N (Homo sapiens, UniProt P61088); format: functional;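 note: Dose-response confirmation in a TR-FRET assay detecting UBC13-driven polyubiquitin chain formation, inhibition measured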
# T3 sequence (P61088 whole entry): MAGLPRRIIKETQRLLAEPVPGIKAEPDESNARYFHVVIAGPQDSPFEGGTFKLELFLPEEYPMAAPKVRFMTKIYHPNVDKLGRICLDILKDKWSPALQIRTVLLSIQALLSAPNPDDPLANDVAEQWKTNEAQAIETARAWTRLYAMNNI
# [18] = biological target: T4, Zinc finger protein mex-5 (Caenorhabditis elegans, UniProt Q9XUB2); experiment: potency of MEX-5 RNA-binding blockers – biochemical, C. elegans, fluorescence polarization, dose response (AID 1960)
# T4 sequence (Q9XUB2 whole entry): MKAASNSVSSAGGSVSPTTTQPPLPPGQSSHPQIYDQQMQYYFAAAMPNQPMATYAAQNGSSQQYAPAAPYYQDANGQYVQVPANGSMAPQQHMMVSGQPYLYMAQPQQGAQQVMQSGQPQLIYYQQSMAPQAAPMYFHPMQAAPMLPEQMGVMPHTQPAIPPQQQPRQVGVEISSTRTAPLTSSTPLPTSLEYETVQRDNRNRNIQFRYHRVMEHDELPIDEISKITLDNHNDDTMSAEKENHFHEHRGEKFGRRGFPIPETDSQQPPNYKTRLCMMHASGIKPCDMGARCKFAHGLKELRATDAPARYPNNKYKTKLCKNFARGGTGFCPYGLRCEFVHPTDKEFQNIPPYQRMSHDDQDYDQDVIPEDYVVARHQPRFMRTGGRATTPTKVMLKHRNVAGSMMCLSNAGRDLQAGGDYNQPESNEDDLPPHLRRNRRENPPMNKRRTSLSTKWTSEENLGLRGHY
# [19] = biological target: Nonstructural protein 1 (Influenza A virus, UniProt Q194T2); format: functional, Influenza A virus (A/California/07/2009(H1N1))
# Nonstructural protein 1, sequence (Q194T2 whole entry, the tested form may be a part): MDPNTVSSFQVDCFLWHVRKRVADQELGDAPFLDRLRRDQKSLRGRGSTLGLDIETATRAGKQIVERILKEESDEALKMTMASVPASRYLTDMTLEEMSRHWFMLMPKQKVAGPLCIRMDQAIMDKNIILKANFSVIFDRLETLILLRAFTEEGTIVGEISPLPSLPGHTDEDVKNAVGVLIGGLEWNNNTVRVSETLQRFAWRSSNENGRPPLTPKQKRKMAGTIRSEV
# [20] = biological target: T5, RNA-binding protein pos-1 (Caenorhabditis elegans, UniProt G5EF15); experiment: disruptors of C. elegans POS-1 RNA interaction – biochemical, fluorescence polarization, dose response (AID 1964);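 note: purified POS-1 fused to maltose binding protein made in E. coli; potency of compounds blocking POS-1 binding to fluorescent RNA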
# T5 sequence (G5EF15 whole entry): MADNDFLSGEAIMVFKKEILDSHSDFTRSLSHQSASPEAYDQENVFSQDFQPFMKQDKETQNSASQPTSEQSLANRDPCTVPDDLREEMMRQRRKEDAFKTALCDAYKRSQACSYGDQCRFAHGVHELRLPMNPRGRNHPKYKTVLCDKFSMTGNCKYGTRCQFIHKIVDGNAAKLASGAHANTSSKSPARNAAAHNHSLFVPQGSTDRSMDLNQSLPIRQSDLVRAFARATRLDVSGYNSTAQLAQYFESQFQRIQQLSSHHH
# [21] = Luminescence-based counterscreen assay for KLF5 inhibitors: dose response cell-based high throughput screening assay to identify cytotoxic compounds using the IEC-6 intestinal epithelial cell line. [Related pubchem assays: 1700 (Primary screen.), 1834 (Confirmation screen.), 1858 (Summary AID.), 1905 (Counterscreen.)]; format: functional
# [22] = biological target: T6, Fatty acid synthase (Homo sapiens, UniProt P49327); experiment: inhibition of human FAS-TE enzyme activity – biochemical, endpoint fluorescence intensity, uHTS hits, dose response (AID 624327); format: functional;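 note: fluorescence from hydrolysis of an O-methyl fluorescein acyl ester substrate by the enzyme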
# T6 sequence (P49327 whole entry): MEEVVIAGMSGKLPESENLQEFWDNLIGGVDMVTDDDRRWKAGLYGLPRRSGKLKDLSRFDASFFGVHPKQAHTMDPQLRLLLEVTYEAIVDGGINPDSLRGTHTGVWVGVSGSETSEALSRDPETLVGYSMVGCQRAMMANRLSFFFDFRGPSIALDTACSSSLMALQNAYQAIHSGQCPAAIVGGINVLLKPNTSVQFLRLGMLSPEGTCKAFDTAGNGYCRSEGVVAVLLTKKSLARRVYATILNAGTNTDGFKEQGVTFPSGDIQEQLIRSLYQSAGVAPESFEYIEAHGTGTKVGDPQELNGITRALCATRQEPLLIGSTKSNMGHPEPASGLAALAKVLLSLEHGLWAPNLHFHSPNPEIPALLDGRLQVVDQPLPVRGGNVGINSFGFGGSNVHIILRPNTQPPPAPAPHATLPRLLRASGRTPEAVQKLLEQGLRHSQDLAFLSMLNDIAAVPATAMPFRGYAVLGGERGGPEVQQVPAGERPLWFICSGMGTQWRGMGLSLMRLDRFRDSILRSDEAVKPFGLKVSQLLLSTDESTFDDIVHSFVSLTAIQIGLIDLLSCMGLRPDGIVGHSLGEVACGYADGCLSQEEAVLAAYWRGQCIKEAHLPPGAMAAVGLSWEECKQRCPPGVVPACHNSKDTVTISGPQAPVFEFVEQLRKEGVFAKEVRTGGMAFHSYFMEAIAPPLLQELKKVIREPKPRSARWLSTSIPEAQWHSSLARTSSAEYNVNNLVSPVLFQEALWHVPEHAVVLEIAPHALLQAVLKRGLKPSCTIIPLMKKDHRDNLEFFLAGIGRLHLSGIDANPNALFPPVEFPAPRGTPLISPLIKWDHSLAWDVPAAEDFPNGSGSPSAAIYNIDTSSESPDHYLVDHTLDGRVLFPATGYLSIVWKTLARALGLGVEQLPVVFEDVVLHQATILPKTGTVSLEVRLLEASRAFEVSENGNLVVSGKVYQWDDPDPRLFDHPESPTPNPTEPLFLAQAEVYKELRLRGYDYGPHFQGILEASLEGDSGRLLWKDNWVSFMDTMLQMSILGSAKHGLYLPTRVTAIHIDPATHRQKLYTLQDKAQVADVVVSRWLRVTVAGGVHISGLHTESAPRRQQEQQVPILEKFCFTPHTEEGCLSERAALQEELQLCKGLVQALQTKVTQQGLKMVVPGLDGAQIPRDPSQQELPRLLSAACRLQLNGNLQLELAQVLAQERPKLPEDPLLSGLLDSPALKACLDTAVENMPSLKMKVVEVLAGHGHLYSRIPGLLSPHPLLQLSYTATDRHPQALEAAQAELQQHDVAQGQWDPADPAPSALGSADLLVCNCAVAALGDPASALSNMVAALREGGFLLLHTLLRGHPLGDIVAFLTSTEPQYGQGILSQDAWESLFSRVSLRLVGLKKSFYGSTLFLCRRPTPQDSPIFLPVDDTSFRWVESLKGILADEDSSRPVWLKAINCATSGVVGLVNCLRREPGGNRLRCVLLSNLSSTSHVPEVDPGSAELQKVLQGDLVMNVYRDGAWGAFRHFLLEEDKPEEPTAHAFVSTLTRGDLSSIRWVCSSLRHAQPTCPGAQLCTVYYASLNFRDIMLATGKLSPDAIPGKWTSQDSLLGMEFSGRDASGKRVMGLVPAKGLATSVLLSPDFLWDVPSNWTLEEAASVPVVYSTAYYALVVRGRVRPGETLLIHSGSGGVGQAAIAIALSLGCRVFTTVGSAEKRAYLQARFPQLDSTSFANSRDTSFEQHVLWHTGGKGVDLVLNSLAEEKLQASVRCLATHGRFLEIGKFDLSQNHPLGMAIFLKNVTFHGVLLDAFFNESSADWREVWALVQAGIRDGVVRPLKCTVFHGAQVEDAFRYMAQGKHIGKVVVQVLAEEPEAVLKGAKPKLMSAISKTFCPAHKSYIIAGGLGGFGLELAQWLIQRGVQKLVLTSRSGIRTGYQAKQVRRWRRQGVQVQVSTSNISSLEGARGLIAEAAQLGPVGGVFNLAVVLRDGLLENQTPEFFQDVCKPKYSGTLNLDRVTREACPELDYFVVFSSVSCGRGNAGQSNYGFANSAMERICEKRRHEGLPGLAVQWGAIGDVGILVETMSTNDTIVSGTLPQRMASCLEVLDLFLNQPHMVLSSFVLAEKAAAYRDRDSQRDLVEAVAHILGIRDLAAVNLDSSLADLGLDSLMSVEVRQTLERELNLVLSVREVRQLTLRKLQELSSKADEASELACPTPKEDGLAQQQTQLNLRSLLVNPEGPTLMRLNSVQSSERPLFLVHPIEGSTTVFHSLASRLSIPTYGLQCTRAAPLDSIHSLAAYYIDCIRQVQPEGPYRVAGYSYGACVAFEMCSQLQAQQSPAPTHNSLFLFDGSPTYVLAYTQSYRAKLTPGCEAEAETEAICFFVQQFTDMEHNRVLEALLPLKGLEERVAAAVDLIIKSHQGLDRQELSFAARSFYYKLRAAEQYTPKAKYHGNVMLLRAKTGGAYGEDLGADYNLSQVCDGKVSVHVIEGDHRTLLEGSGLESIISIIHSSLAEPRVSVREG
# [23] = biological target: T6, Fatty acid synthase; experiment: inhibition of human FAS-TE enzyme activity – biochemical, kinetic fluorescence intensity, dose response (AID 624326); format: functional;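 note: rate of fluorescence rise from hydrolysis of a fluorogenic O-methyl fluorescein ester substrate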
# [24] = Trypanosoma cruzi growth suppression in host cells – NIH3T3 host cells, beta-gal luminescence, confirmation (AID 2044); format: functional, cell-based;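 note: intracellular parasites grown in NIH/3T3 mouse fibroblasts as host cells; luminescent beta-galactosidase reporter signal from transgenic T. cruzi replicating inside host cells; inhibitors lower the luminescence signal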
# [25] = NIH3T3 cell viability loss – ATP luminescence, mouse fibroblasts, counter-screen, dose response (AID 2010); format: functional, cell-based;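 note: cells exposed to compound for about 90 hours before reading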
# [26] = biological target: T7, Alkaline phosphatase, tissue-nonspecific isozyme (Homo sapiens, UniProt P05186); experiment: potency against alkaline phosphatase TNAP – biochemical, luminescent, dose response, SAR follow-up (AID 1056)
# T7 sequence (P05186 whole entry): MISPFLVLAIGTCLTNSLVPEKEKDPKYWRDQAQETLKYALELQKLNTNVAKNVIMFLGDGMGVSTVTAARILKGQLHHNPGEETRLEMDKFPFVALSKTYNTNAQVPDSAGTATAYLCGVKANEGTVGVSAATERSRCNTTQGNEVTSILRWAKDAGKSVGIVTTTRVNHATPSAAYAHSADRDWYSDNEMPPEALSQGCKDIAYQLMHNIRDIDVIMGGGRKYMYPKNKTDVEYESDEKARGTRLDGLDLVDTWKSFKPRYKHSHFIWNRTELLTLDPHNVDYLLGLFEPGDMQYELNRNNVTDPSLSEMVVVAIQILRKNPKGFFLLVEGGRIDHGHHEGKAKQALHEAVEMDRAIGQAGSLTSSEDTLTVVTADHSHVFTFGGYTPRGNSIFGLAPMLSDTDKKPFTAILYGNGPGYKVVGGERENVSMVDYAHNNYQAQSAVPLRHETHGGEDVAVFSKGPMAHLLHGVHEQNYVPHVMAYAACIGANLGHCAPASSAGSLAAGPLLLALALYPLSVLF
# [27] = biological target: Glyceraldehyde-3-phosphate dehydrogenase (Homo sapiens, UniProt P04406)
# Glyceraldehyde-3-phosphate dehydrogenase, sequence (P04406 whole entry): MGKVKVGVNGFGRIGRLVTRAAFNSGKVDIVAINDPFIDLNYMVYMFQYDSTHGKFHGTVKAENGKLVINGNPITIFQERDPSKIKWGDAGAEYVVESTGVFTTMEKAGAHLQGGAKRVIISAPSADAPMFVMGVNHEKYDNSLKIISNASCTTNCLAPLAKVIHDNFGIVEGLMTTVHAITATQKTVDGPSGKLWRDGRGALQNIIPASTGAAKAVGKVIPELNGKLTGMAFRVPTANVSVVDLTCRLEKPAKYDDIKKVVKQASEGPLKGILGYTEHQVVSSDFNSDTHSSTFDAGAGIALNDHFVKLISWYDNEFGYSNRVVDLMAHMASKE
# [28] = cells; format: functional, cell-based
# [29] = cells; format: functional, cell-based; remark: listed apart in the source
# [30] = tested on: H4; experiment: Luminescence Cell-Based Dose Response HTS to Identify Activators of 5'UTR Stem-Loop Driven Prion Protein mRNA Translation in H4 Neuroglioblastoma Cells. [Related pubchem assays: 1829 (Project Summary), 1814 (Primary HTS)]; format: functional; settings: Homo sapiens
# [31] = Luminescence Cell-Based Dose Confirmation HTS to Identify Activators of 5'UTR Stem-Loop Driven Alpha-Synuclein mRNA Translation in H4 Neuroglioblastoma Cells. [Related pubchem assays: 1829 (Project Summary), 1814 (Primary HTS)]; format: functional
smiles,measurement,setting,value
CCn1ncc(C2=NOC(C(=O)NCc3ccccc3)C2)c1C (configuration not stated),IC50,[1],> 80 µM (inactive)
CCCc1cc(O)nc(SCC(=O)Nc2ccc(C(=O)OC)cc2)n1,IC50,[2],> 50 µM (not active)
CCC1(c2ccccc2)ON(c2c(Br)cccc2Br)C1=O (configuration not stated),CC50,[3],> 25 µM (active)
same,CC50,[4],21.4 µM (active)
O=C(Nc1ncc(Cc2ccccc2)s1)C1COc2ccccc2O1 (configuration not stated),EC50,[5],< 0.1 µM (active)
same,EC50,[6],11.4 µM (active)
same,EC50,[7],0.179 µM (active)
same,EC50,[8],0.465 µM (active)
Cn1cnnc1SCc1ccc(C(=O)N=Nc2c(O)n(Cc3ccc(Cl)cc3)c3ccccc23)cc1,CC50,[9],16.5 µM (active)
same,EC50,[10],18 µM (inconclusive)
same,EC50,[11],3.12 µM (active)
same,CC50,[4],21.2 µM (active)
same,EC50,[12],> 150 µM (not active)
O=C(Nc1ccccc1-c1nc2ccccc2[nH]1)c1ccc(N2C(=O)CCC2=O)cc1,IC50,[13],> 64.6 µM (inactive)
same,IC50,[14],> 21.5 µM (inactive)
same,AC50,[15],75.6 µM (active)
O=C(NC(=S)Nc1ccccc1N1CCOCC1)c1ccc(Br)cc1,IC50,[16],1.08 µM (active)
CCOC(=O)c1c(C(C)(C)C)oc2ccc(O)cc12,IC50,[17],> 20 µM (inactive)
same,IC50,[16],4.47 µM (active)
c1ccc(-c2nnc(-c3ccccn3)nn2)nc1,EC50,[18],49.8 µM (inconclusive)
same,IC50,[19],12.6 µM (active)
same,EC50,[20],> 300 µM (not active)
same,CC50,[4],34.2 µM (active)
CN(C)c1cc(O)c(C(S)=Nc2ccccc2)c(N(C)C)c1,AC50,[15],52.2 µM (active)
CCOC(=O)c1sc(NC(=O)c2ccc3ncsc3c2)nc1C,IC50,[21],> 39.8 µM (not active)
N#CC1=C2N=C(N)c3ccccc3N2C2=C(C(=O)CCC2)C1c1cccc(Cl)c1 (configuration not stated),IC50,[16],8.48 µM (active)
CC(C)(CNC(=O)c1ccc([N+](=O)[O-])c(Cl)c1)CNC(=O)c1ccc([N+](=O)[O-])c(Cl)c1,IC50,[22],5.44 µM (active)
same,IC50,[13],> 64.6 µM (inactive)
same,IC50,[23],6.06 µM (active)
same,IC50,[14],> 64.6 µM (inactive)
same,IC50,[16],3.11 µM (active)
COc1ccc(C2c3[nH]c4ccccc4c3CCN2Cc2cccn2-c2ncccn2)cc1C (configuration not stated),EC50,[24],1.28 µM (active)
same,EC50,[25],> 60 µM (inconclusive)
same,CC50,[4],> 40 µM (active)
Cc1c(C(=O)O)nnn1-c1ccc(Cl)cc1,IC50,[26],> 100 µM (inactive)
same,IC50,[27],> 100 µM (not active)
COc1cccc(S(=O)(=O)Nc2ccncn2)c1,IC50,[26],> 100 µM (inactive)
same,IC50,[27],> 100 µM (not active)
Cc1ccc(C(=O)N/N=C/c2cc(Br)ccc2O)cn1,IC50,[21],5.56 µM (active)
same,EC50,[28],> 350 µM (not active)
same,EC50,[11],3.17 µM (active)
same,IC50,[19],12.3 µM (active)
same,EC50,[29],16.1 µM (active)
same,EC50,[12],5.99 µM (active)
CN1CCN(Cc2c(C(=O)N/N=C/c3cccc(Br)c3)nnn2-c2nonc2N)CC1,AC50,[15],2.08 µM (active)
same,CC50,[3],10.1 µM (active)
C/C(=N\OC(=O)c1ccc(F)cc1)c1sc(-c2ccc(Cl)cc2)nc1C,EC50,[5],0.122 µM (active)
same,EC50,[30],< 0.1 µM (active)
same,EC50,[6],0.37 µM (active)
same,EC50,[7],0.301 µM (active)
same,EC50,[31],< 0.1 µM (active)
same,EC50,[8],0.236 µM (active)
